How the values were obtained:
[1] = test system: L-428 (Hodgkin's Lymphoma); experiment: Bliss excess, mean over the matrix (fraction); higher = more synergy
Summary of the method: (§1)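 Bliss excess equals the observed combination effect minus the expected value EA + EB − EA·EB, where EA and EB are the effects of each agent alone. Combination Emax is the second-highest inhibition within the matrix. Inhibition was scaled from CellTiter-Glo 2.0 luminescence, with 0 set by vehicle wells and 1 by blank wells, after 72 hours of two-drug dosing of cells plated in 1536-well plates.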

[2] = test system: ESS-1 (Other Solid Carcinomas); experiment: as above
Summary of the method: as §1

[3] = test system: SAS (Oral Cavity Carcinoma); experiment: as above
Summary of the method: as §1

[4] = test system: TGBC1TKB (Biliary Tract Carcinoma); experiment: as above
Summary of the method: as §1

[5] = test system: BPH-1 (Non-Cancerous); experiment: as above
Summary of the method: as §1

[6] = test system: BFTC-909 (Kidney Carcinoma); experiment: as above
Summary of the method: as §1

[7] = test system: SNU-16 (Gastric Carcinoma); experiment: as above
Summary of the method: as §1

[8] = test system: HuH-7 (Hepatocellular Carcinoma); experiment: as above
Summary of the method: as §1

[9] = test system: HuCCT1 (Biliary Tract Carcinoma); experiment: as above
Summary of the method: as §1

[10] = test system: HeLa (Cervical Carcinoma); experiment: as above
Summary of the method: as §1

[11] = test system: KMRC-20 (Kidney Carcinoma); experiment: as above
Summary of the method: as §1

[12] = test system: MPP-89 (Mesothelioma); experiment: as above
Summary of the method: as §1

[13] = test system: NCI-H524 (Small Cell Lung Carcinoma); experiment: as above
Summary of the method: as §1

[14] = test system: BE2-M17 (Neuroblastoma); experiment: as above
Summary of the method: as §1

[15] = test system: Detroit562 (Head and Neck Carcinoma); experiment: as above
Summary of the method: as §1

[16] = test system: TGBC1TKB (Biliary Tract Carcinoma); experiment: combination Emax (second highest fraction inhibited in the dose matrix, 72 h); higher = more inhibition; extreme values may be limits of the assay
Summary of the method: as §1

[17] = test system: CAL-33 (Oral Cavity Carcinoma); experiment: as above
Summary of the method: as §1

[18] = test system: OE21 (Esophageal Squamous Cell Carcinoma); experiment: as above
Summary of the method: as §1

[19] = test system: KS-1 (Glioblastoma); experiment: as above
Summary of the method: as §1

[20] = test system: BE-13 (T-Lymphoblastic Leukemia); experiment: as above
Summary of the method: as §1

Row | Compound | Bliss excess [1] | Bliss excess [2] | Bliss excess [3] | Bliss excess [4] | Bliss excess [5] | Bliss excess [6] | Bliss excess [7] | Bliss excess [8] | Bliss excess [9] | Bliss excess [10] | Bliss excess [11] | Bliss excess [12] | Bliss excess [13] | Bliss excess [14] | Bliss excess [15] | combination Emax [16] | combination Emax [17] | combination Emax [18] | combination Emax [19] | combination Emax [20]
1 | CN(C)CCCOc1ccc(-c2ccc3ncc4c(c3c2)n(C2CCOCC2)c(=O)n4C)cn1 [AZD0156] + C=CCn1c(=O)c2cnc(Nc3ccc(N4CCN(C)CC4)cc3)nc2n1-c1cccc(C(C)(C)O)n1 [AZD1775] (first compound max 1 µM, partner max 1 µM) | 0.0106 | -0.124 | -0.0742 | -0.0734 | 0.0475 | -0.0638 | -0.0158 | -0.0497 | -0.0382 | -0.0364 | -0.0707 | -0.0513 | -0.0204 | -0.0429 | -0.0122 | 0.134 | 0.643 | 0.567 | 0.39 | 0.964
2 | CN(C)CCCOc1ccc(-c2ccc3ncc4c(c3c2)n(C2CCOCC2)c(=O)n4C)cn1 [AZD0156] + CCN(CCO)CCCOc1ccc2c(Nc3cc(CC(=O)Nc4cccc(F)c4)[nH]n3)ncnc2c1 [AZD2811] (first compound max 1 µM, 7x7, partner max 1 µM) | 0.0314 | 0.0179 | -0.0391 | -0.043 | 0.0625 | -0.0015 | 0.0244 | -0.0381 | -0.0274 | -0.0136 | -0.0499 | -0.0402 | -0.0083 | 0.0535 | 0.0235 | 0.0674 | 0.71 | 0.22 | 0.291 | 0.674
3 | CN(C)CCCOc1ccc(-c2ccc3ncc4c(c3c2)n(C2CCOCC2)c(=O)n4C)cn1 [AZD0156] + C[C@@H]1COCCN1C2=NC(=NC(=C2)C3(CC3)[S@](=N)(=O)C)C4=C5C=CNC5=NC=C4 [AZD6738] (first compound max 1 µM, 7x7, partner max 10 µM) | 0.0132 | -0.0177 | -0.0363 | -0.0227 | -0.0092 | 0.027 | 0.0529 | 0.0196 | 0.0297 | -0.0217 | -0.031 | 0.0041 | 0.0229 | 0.0914 | 0.0477 | 0.397 | 0.782 | 0.696 | 0.561 | 0.723
4 | CN(C)CCCOc1ccc(-c2ccc3ncc4c(c3c2)n(C2CCOCC2)c(=O)n4C)cn1 [AZD0156] + O=C(c1cc(Cc2n[nH]c(=O)c3ccccc23)ccc1F)N1CCN(C(=O)C2CC2)CC1 [Olaparib] (first compound max 3 µM, partner max 3 µM) | -0.0116 | 0.0655 | 0.0188 | -0.0294 | 0.158 | 0.0705 |  | -0.0107 | -0.0012 | -0.0057 | 0.0163 | -0.0547 | 0.179 | 0.0515 | 0.058 | 0.157 | 0.352 | 0.283 | 0.197 | 0.428
5 | C=CCn1c(=O)c2cnc(Nc3ccc(N4CCN(C)CC4)cc3)nc2n1-c1cccc(C(C)(C)O)n1 [AZD1775] + C1CN(CCC1(C(=O)N[C@@H](CCO)C2=CC=C(C=C2)Cl)N)C3=NC=NC4=C3C=CN4 [Capivasertib] (first compound max 3 µM, partner max 3 µM) | -0.0138 | -0.0251 | -0.0206 | -0.0061 | -0.0371 | -0.0004 |  | 0.0263 |  | -0.0168 | -0.0646 | -0.0704 | -0.0075 | -0.0406 | 0.0209 | 0.434 | 0.929 | 0.747 | 0.589 | 0.968
6 | C=CCn1c(=O)c2cnc(Nc3ccc(N4CCN(C)CC4)cc3)nc2n1-c1cccc(C(C)(C)O)n1 [AZD1775] + C[C@@H]1COCCN1C2=NC(=NC(=C2)C3(CC3)[S@](=N)(=O)C)C4=C5C=CNC5=NC=C4 [AZD6738] (first compound max 1 µM, partner max 10 µM) | 0.0246 | -0.015 | 0.0138 | 0.0388 | 0.0614 | 0.0858 | -0.0002 | 0.0027 | -0.0205 | 0.0883 | 0.0174 | 0.0013 | 0.051 | 0.103 | -0.002 | 0.502 | 0.935 | 0.746 | 0.66 | 1
7 | C=CCn1c(=O)c2cnc(Nc3ccc(N4CCN(C)CC4)cc3)nc2n1-c1cccc(C(C)(C)O)n1 [AZD1775] + O=C(c1cc(Cc2n[nH]c(=O)c3ccccc23)ccc1F)N1CCN(C(=O)C2CC2)CC1 [Olaparib] (first compound max 1 µM, partner max 10 µM) | -0.0252 | -0.0316 | -0.0939 | -0.0558 | -0.0199 | 0.0075 | 0.0102 | -0.0107 | -0.0149 | 0.0346 | -0.112 | -0.0018 | 0.0424 | -0.0486 | -0.0389 | 0.258 | 0.721 | 0.498 | 0.481 | 0.984
